Results from paper PMC10141580, “Cyclic Dichalcogenides Extend the Reach of Bioreductive Prodrugs to Harness Thiol/Disulfide Oxidoreductases: Applications to seco-Duocarmycins Targeting the Thioredoxin System” (ACS Central Science, 2023).
Like-named read-outs stand apart in the source and are kept apart here.

Assays:
[1] = test system: NCI-60 standardized human tumor cell line panel; test: cells; type: cell-based; details: read-out: GI50
A549 cells = test: Resazurin cytotoxicity assay, A549, 72 h; details: read-out: IC50(nM): A549
Protocol: (§1) We used A549 lung cancer and HeLa cervical cancer cell lines for initial screening of the prodrugs.
Fi gure S9: Cell ular resazurin-based cytotoxi ci ty as s a y.
Dose -response curves were calculated from at least 27 incremental single concentrations over a range
of at least three log units. Individual experiments with annotated experiment numbers are shown for each prodrug

HeLa-HRE cells = test: Resazurin cytotoxicity assay, HeLa-HRE, 48 h; details: for IC50(HeLa)/IC50(A549): ratio HeLa vs A549
Protocol: as §1
HeLa-HRE cells were treated with prodrugs of the
Dose -response curves were calculated from at least 27 incremental single concentrations over a
range of at least three log units.

[2] = Cell-free HPLC reduction assay (GSH or TCEP challenge); details: 5 mM GSH (50 equiv), 24 h
Description: These performance features had not been tested with naphthols, so we used HPLC to test them and show their reduction-based activation sequence (Figure 2c and Figures S4–S6).
In brief, treatment with the quantitative reductant TCEP triggered a reaction cascade matching the activation sequence we expected (Figure 2c): dichalcogenides are reduced to dichalcogenols that cyclize, giving the naphthol cargos (plus thiol trigger byproduct) that evolve to the activated cyclopropanes (Figure 5).
The mobile phase consists of eluent A: water (analytical
grade, 0.1% formic acid) and eluent B: MeCN (analytical grade, 0.1% formic acid).
using a gradient of 10% B t o 90% B over 10 min.
Reduction assay using TCEP and GSH
tris(2-carboxyethyl)phospine) (TCEP, 5 mM in TE-bu f f e r ) , or reduced glut at hione (GSH, 50 mM in TE-buf f er) or
else blank TE-buffer. Final concentrations: Prodrug (0.1 mM) , TCEP ( 0. 5 mM) , G SH ( 5 mM). The blank sample
was measured after 10 min (“pure”) and 24 h (“O H-“) to control for basic hydrolysis. The GSH sample was
measured after 24 h to control for monothiol-based reductive release. The TCEP sample was measured at several […]
extracted for each of the intermediate species and final r elease products. Peak areas were calculated relative to
the sum of all peak areas at 320 nm to quantify individual species at each timepoints. […]

mouse = test: Tolerability for repeated dose administration in vivo (summary); details: for remarks: repeated dose administration; for well-tolerated dose: weekly or twice-weekly administration
Balb/c mice = test: Moderate repeated dosing tolerability study; type: in vivo
Protocol: Next, a moderate repeated dosing study in Balb/c mice (3 animals per group) tested the importance of solubilizing the prodrugs.
Methods for in vivo animal studies
All in vivo studies were conducted as contract research together with React ionBiology Eur ope G mbH (Freiburg,
Germany), EPO – Experimental Pharmacology & Oncology GmbH (Berlin, Germany); Bient a/ Enam ine Lt d. (Kyiv,
Ukraine) and Leit at – Managing Technologies (Barcelona, Spain), adhering to the respective animal welfare
Mice were kept in individually ventilated cages at constant temperature (22±2 °C, air-conditioned) and humidity (45
– 65%), under optimum hygienic conditions with 10 – 15 air changes per hour. A cycle of 12 h artificial fluorescent
light ning and 12 h darkness was applied , and animal behavior was monitored daily throughout the studies. The
animals received food and water ad libit um.
To evaluate toxicity of selected compounds, dose level selection studies within dose range from 0.1 mg/kg to
10 mg/kg were performed by intravenous administration into Balb /c mice. Each dose for each tested compound
was administered in one mouse.
changes and clinical signs of gross toxicity three tim es per week for 21 consecutive days of post-dosing period.
After the first week of observation without adverse events, two doses for each test compound were selected as
tolerated. These two doses were tested in two additional mice for confirmation of toler ability. Additional animals
consecutive days of post-dosing period. Toxicity of repeated administrations was tested wit h t hr ee repeat ed pr e-
selected doses at a dosing interval of 7 days. Mortality, body weight changes, and clinical signs of gross toxicity
were monitored after each drug administration and three times per week for 21 consecutive days after the first
compound administration. Bleed ing with subsequent hematological tests, clinical chemistry parameters analysis
(ALT, AST, ALP, LDH, creatine kinase, creatinine, urea, cholesterol, and triglycerides), and necropsy with
macroscopic inspection were performed on the terminal day of the repeated dosing-regime.
To test tolerability of selected compounds in vivo, female BALB/c mice were randomized by weight into seven
groups of t hree animals.

[3] = read-out: IC50(nM): HeLa, HeLa, 48 h

## CN1CCN(C(=O)Oc2cc3c(c4ccccc24)C(CCl)CN3C(=O)c2cc3cc(OCCCN4CCC4)ccc3[nH]2)C2CSSCC21 (mixture of isomers) [Me-SS66C-CBI-AZI]
[1]; 786-0, AZI sheet
  GI50: 8.8 nM
[1]; A498, AZI sheet
  GI50: 26 nM
[1]; A549/ATCC, AZI sheet
  GI50: 5 nM
[1]; ACHN, AZI sheet
  GI50: 2 nM
[1]; BT-549, AZI sheet
  GI50: 54 nM
[1]; CAKI-1, AZI sheet
  GI50: 8.2 nM
[1]; CCRF-CEM, AZI sheet
  GI50: 18 nM
[1]; COLO 205, AZI sheet
  GI50: 22 nM
[1]; DU-145, AZI sheet
  GI50: 5.3 nM
[1]; EKVX, AZI sheet
  GI50: 27 nM
[1]; HCC-2998, AZI sheet
  GI50: 22 nM
[1]; HCT-15, AZI sheet
  GI50: 11 nM
[1]; HCT-116, AZI sheet
  GI50: 46 nM
[1]; HL-60(TB), AZI sheet
  GI50: 29 nM
[1]; HOP-62, AZI sheet
  GI50: 9.6 nM
[1]; HOP-92, AZI sheet
  GI50: 53 nM
[1]; HT29, AZI sheet
  GI50: 15 nM
[1]; IGROV1, AZI sheet
  GI50: 6.6 nM
[1]; K-562, AZI sheet
  GI50: 17 nM
[1]; KM12, AZI sheet
  GI50: 90 nM
[1]; LOX IMVI, AZI sheet
  GI50: 3.2 nM
[1]; M14, AZI sheet
  GI50: 14 nM
[1]; MALME-3M, AZI sheet
  GI50: 19 nM
[1]; MCF7, AZI sheet
  GI50: 1.5 nM
[1]; MDA-MB-231, AZI sheet
  GI50: 37.8 nM
[1]; MDA-MB-435, AZI sheet
  GI50: 25 nM
[1]; MDA-MB-468, AZI sheet
  GI50: 5.3 nM
[1]; MOLT-4, AZI sheet
  GI50: 14 nM
[1]; NCI-H23, AZI sheet
  GI50: 4.3 nM
[1]; NCI-H226, AZI sheet
  GI50: 6.9 nM
[1]; NCI-H460, AZI sheet
  GI50: 1.6 nM
[1]; NCI-H522, AZI sheet
  GI50: 28 nM
[1]; OVCAR-3, AZI sheet
  GI50: 51 nM
[1]; OVCAR-4, AZI sheet
  GI50: 74 nM
[1]; OVCAR-5, AZI sheet
  GI50: 23 nM
[1]; OVCAR-8, AZI sheet
  GI50: 12 nM
[1]; PC-3, AZI sheet
  GI50: 34 nM
[1]; RPMI-8226, AZI sheet
  GI50: 35 nM
[1]; RXF 393, AZI sheet
  GI50: 4.2 nM
[1]; SF-268, AZI sheet
  GI50: 20 nM
[1]; SF-295, AZI sheet
  GI50: 2.1 nM
[1]; SF-539, AZI sheet
  GI50: 22 nM
[1]; SK-MEL-2, AZI sheet
  GI50: 31 nM
[1]; SK-MEL-5, AZI sheet
  GI50: 19 nM
[1]; SK-MEL-28, AZI sheet
  GI50: 22 nM
[1]; SK-OV-3, AZI sheet
  GI50: 30 nM
[1]; SN12C, AZI sheet
  GI50: 12 nM
[1]; SNB-19, AZI sheet
  GI50: 18 nM
[1]; SR, AZI sheet
  GI50: 2.7 nM
[1]; SW-620, AZI sheet
  GI50: 18 nM
[1]; T-47D, AZI sheet
  GI50: 15 nM
[1]; TK-10, AZI sheet
  GI50: 36 nM
[1]; U251, AZI sheet
  GI50: 3.6 nM
[1]; UACC-62, AZI sheet
  GI50: 4.2 nM
[1]; UACC-257, AZI sheet
  GI50: 34 nM
[1]; UO-31, AZI sheet
  GI50: 12 nM
A549 cells
  IC50: 12 nM
HeLa-HRE cells
  IC50(HeLa)/IC50(A549): 33
HeLa-HRE cells; [3]
  IC50: 400 nM
[2]
  release/reduction on GSH challenge: no disulfide reduction/prodrug release was indicated

## CN1CCN(C(=O)CCN(C(=O)Oc2cc3c(c4ccccc24)[C@H](CCl)CN3C(=O)c2cc3cc(OCCCN4CCC4)ccc3[nH]2)[C@H]2CCSSC2)CC1 [P-SS60-CBI-AZI]
[1]; 786-0, AZI sheet
  GI50: 330 nM
[1]; A498, AZI sheet
  GI50: 200 nM
[1]; A549/ATCC, AZI sheet
  GI50: 110 nM
[1]; ACHN, AZI sheet
  GI50: 130 nM
[1]; BT-549, AZI sheet
  GI50: 1000 nM
[1]; CAKI-1, AZI sheet
  GI50: 150 nM
[1]; CCRF-CEM, AZI sheet
  GI50: 270 nM
[1]; COLO 205, AZI sheet
  GI50: 430 nM
[1]; DU-145, AZI sheet
  GI50: 170 nM
[1]; EKVX, AZI sheet
  GI50: 350 nM
[1]; HCC-2998, AZI sheet
  GI50: 150 nM
[1]; HCT-15, AZI sheet
  GI50: 210 nM
[1]; HCT-116, AZI sheet
  GI50: 230 nM
[1]; HL-60(TB), AZI sheet
  GI50: 390 nM
[1]; HOP-62, AZI sheet
  GI50: 150 nM
[1]; HOP-92, AZI sheet
  GI50: 1000 nM
[1]; HT29, AZI sheet
  GI50: 210 nM
[1]; IGROV1, AZI sheet
  GI50: 540 nM
[1]; K-562, AZI sheet
  GI50: 220 nM
[1]; KM12, AZI sheet
  GI50: 310 nM
[1]; LOX IMVI, AZI sheet
  GI50: 86 nM
[1]; M14, AZI sheet
  GI50: 200 nM
[1]; MALME-3M, AZI sheet
  GI50: 230 nM
[1]; MCF7, AZI sheet
  GI50: 49 nM
[1]; MDA-MB-231, AZI sheet
  GI50: 402 nM
[1]; MDA-MB-435, AZI sheet
  GI50: 290 nM
[1]; MDA-MB-468, AZI sheet
  GI50: 150 nM
[1]; MOLT-4, AZI sheet
  GI50: 230 nM
[1]; NCI-H23, AZI sheet
  GI50: 66 nM
[1]; NCI-H226, AZI sheet
  GI50: 150 nM
[1]; NCI-H460, AZI sheet
  GI50: 31 nM
[1]; NCI-H522, AZI sheet
  GI50: 250 nM
[1]; OVCAR-3, AZI sheet
  GI50: 430 nM
[1]; OVCAR-4, AZI sheet
  GI50: 1400 nM
[1]; OVCAR-5, AZI sheet
  GI50: 390 nM
[1]; OVCAR-8, AZI sheet
  GI50: 140 nM
[1]; PC-3, AZI sheet
  GI50: 378 nM
[1]; RPMI-8226, AZI sheet
  GI50: 570 nM
[1]; RXF 393, AZI sheet
  GI50: 190 nM
[1]; SF-268, AZI sheet
  GI50: 280 nM
[1]; SF-295, AZI sheet
  GI50: 110 nM
[1]; SF-539, AZI sheet
  GI50: 330 nM
[1]; SK-MEL-2, AZI sheet
  GI50: 340 nM
[1]; SK-MEL-5, AZI sheet
  GI50: 150 nM
[1]; SK-MEL-28, AZI sheet
  GI50: 210 nM
[1]; SK-OV-3, AZI sheet
  GI50: 310 nM
[1]; SN12C, AZI sheet
  GI50: 530 nM
[1]; SNB-19, AZI sheet
  GI50: 270 nM
[1]; SR, AZI sheet
  GI50: 66 nM
[1]; SW-620, AZI sheet
  GI50: 130 nM
[1]; T-47D, AZI sheet
  GI50: 570 nM
[1]; TK-10, AZI sheet
  GI50: 1600 nM
[1]; U251, AZI sheet
  GI50: 100 nM
[1]; UACC-62, AZI sheet
  GI50: 110 nM
[1]; UACC-257, AZI sheet
  GI50: 380 nM
[1]; UO-31, AZI sheet
  GI50: 190 nM
mouse
  remarks: well tolerated
  well-tolerated dose: 3 mg/kg
A549 cells
  IC50: 100 nM
HeLa-HRE cells
  IC50(HeLa)/IC50(A549): 8.9
HeLa-HRE cells; [3]
  IC50: 890 nM

## CN(C(=O)Oc1cc2c(c3ccccc13)[C@H](CCl)CN2C(=O)c1cc2cc(OCCCN3CCC3)ccc2[nH]1)[C@H]1CCS[Se]C1 [SeS60-CBI-AZI]
Balb/c mice; once weekly
  outcome of repeated dosing at 3 mg/kg: significant loss of body weight
Balb/c mice; treated twice a week
  outcome of repeated dosing at 1 mg/kg: still caused adverse effects
mouse
  remarks: adverse effects
A549 cells; Homo sapiens
  IC50: 60 nM
HeLa-HRE cells; Homo sapiens, HeLa, 48 h, read-out: IC50(nM): HeLa
  IC50: 49 nM
HeLa-HRE cells
  IC50(HeLa)/IC50(A549): 0.8

## O=C(c1cc2cc(OCCCN3CCC3)ccc2[nH]1)N1CC(CCl)c2c1cc(OC(=O)N1CCCC3COCC31)c1ccccc21 (mixture of isomers) [O56-CBI-AZI]
mouse
  well-tolerated dose: 1 mg/kg
A549 cells
  IC50: 410 nM
HeLa-HRE cells; initial screening, A549 and HeLa cell lines
  IC50: ~300 nM
HeLa-HRE cells
  IC50(HeLa)/IC50(A549): 1.1
HeLa-HRE cells; [3]
  IC50: 460 nM

## COc1cc2cc(C(=O)N3C[C@@H](CCl)c4c3cc(OC(=O)N(C)CCSSCCN3CCOCC3)c3ccccc43)[nH]c2c(OC)c1OC [SS00M-CBI-TMI]
[1]; 786-0
  GI50: 16 nM
[1]; A498
  GI50: 270 nM
[1]; A549/ATCC
  GI50: 31 nM
[1]; ACHN
  GI50: 19 nM
[1]; BT-549
  GI50: 15 nM
[1]; CAKI-1
  GI50: 41 nM
[1]; CCRF-CEM
  GI50: 100 nM
[1]; COLO 205
  GI50: 450 nM
[1]; EKVX
  GI50: 82 nM
[1]; HCC-2998
  GI50: 78 nM
[1]; HCT-15
  GI50: 190 nM
[1]; HCT-116
  GI50: 610 nM
[1]; HL-60(TB)
  GI50: 78 nM
[1]; HOP-62
  GI50: 11 nM
[1]; HOP-92
  GI50: 750 nM
[1]; HT29
  GI50: 320 nM
[1]; IGROV1
  GI50: 23 nM
[1]; K-562
  GI50: 330 nM
[1]; KM12
  GI50: 150 nM
[1]; LOX IMVI
  GI50: 42 nM
[1]; M14
  GI50: 31 nM
[1]; MALME-3M
  GI50: 110 nM
[1]; MDA-MB-435
  GI50: 51 nM
[1]; MDA-MB-468
  GI50: 12 nM
[1]; MOLT-4
  GI50: 17 nM
[1]; NCI-H23
  GI50: 9.6 nM
[1]; NCI-H226
  GI50: 29 nM
[1]; NCI-H460
  GI50: 9.5 nM
[1]; NCI-H522
  GI50: 400 nM
[1]; OVCAR-3
  GI50: 690 nM
[1]; OVCAR-4
  GI50: 560 nM
[1]; OVCAR-5
  GI50: 82 nM
[1]; OVCAR-8
  GI50: 43 nM
[1]; PC-3
  GI50: 25 nM
[1]; RPMI-8226
  GI50: 850 nM
[1]; RXF 393
  GI50: 6.6 nM
[1]; SF-268
  GI50: 21 nM
[1]; SF-295
  GI50: 7.4 nM
[1]; SF-539
  GI50: 8.3 nM
[1]; SK-MEL-5
  GI50: 35 nM
[1]; SK-MEL-28
  GI50: 41 nM
[1]; SK-OV-3
  GI50: 16 nM
[1]; SN12C
  GI50: 34 nM
[1]; SNB-19
  GI50: 28 nM
[1]; SR
  GI50: 6.9 nM
[1]; SW-620
  GI50: 570 nM
[1]; T-47D
  GI50: 50 nM
[1]; TK-10
  GI50: 820 nM
[1]; U251
  GI50: 18 nM
[1]; UACC-62
  GI50: 52 nM
[1]; UACC-257
  GI50: 500 nM
A549 cells
  IC50: 35 nM
HeLa-HRE cells
  IC50(HeLa)/IC50(A549): 3.6
HeLa-HRE cells; [3]
  IC50: 125 nM
